{"source": "patent US6368831B1", "about": "“Treatment of hyperproliferative disorders” (Childrens Hospital Los Angeles, priority 1998, dated 2002)", "key": {"CHLA-90 cells": {"system": "CHLA-90 cells", "assay": "Morphological assessment of apoptosis and necrosis (Hoechst 33342 / propidium iodide), CHLA-90", "assay_type": "cell-based, human", "procedure": "Methods. To determine the manner in which 4-HPR or HPR+safingol induced cell death in neuroblastoma cells, morphological evidence of apoptosis and/or necrosis was assessed in CHLA-90 cells in the presence or absence of a specific as inhibitor of apoptosis, the neural cell-penetrant, pan-caspase enzyme inhibitor, BOC-d-fink (Enzyme Systems Products, Livermore, Calif.). […] CHLA-90 cells were plated in duplicate in whole medium in Lab Tek chamber slides (Nunc, Naperville, Ill.), allowed to attach for 24 hours, and then treated in the presence or absence of BOC-d-fink (40 μM) for one hour prior to treatment with HPR (10 μM). Control cells were treated with vehicle solvents of 0. 1% ethanol (4-HPR) and/or 0.2% DMSO (BOC-d-fink). Morphological features of apoptosis (DNA condensation and/or apoptotic bodies) were visualized in undetached cells at +24 or +48 hours using blue nuclear fluorescence induced by the supravital DNA stain Hoechst 33342 (10 μg/ml for 30 mins at 37° C.), while necrotic cells and advanced apoptotic cells were recognized by red fluorescent staining with propidium iodide (0.5 μM/ml). Red fluorescently-staining cells with condensed nuclear remnants were scored as apoptotic cells. […] Mutiple random fields of cells (of ˜100-500 cells each) were counted and photographed for viable cells, apoptotic cells, and necrotic cells. […]"}, "[1]": {"system": "SMS-LHN neuroblastoma cell line", "assay": "Ceramide assay, SMS-LHN", "assay_type": "cell-based, human", "conditions": "SMS-LHN (drug sensitive); 10 μM fenretinide; 20% O2", "procedure": "The ceramide assay is carried out as follows. 500,000 neuroblastoma cells/well are replicate plated in six-well tissue culture plates and allowed to attach overnight. Tritiated (3H)-palmitic acid (a lipid precursor) is added to 1 microcure/cc and fenretinide added to a final concentration of 10 uM. Control cells receive tritiated label but no drug. At the indicated time, cells are harvested from triplicate wells, washed, and lipids extracted with methanol, acetic acid, water, and chloroform. The organic layer (containing the tritium label incorporated into lipids) is isolated and dried down by a nitrogen stream. The lipid sample is dissolved in chloroform: methanol and 10% of each sample assayed to estimate the total tritium in the lipid sample. The lipids in sample fractions, together with unlabeled ceramide standards, are then separated by thin layer chromatography and the plates developed by iodine vapor. The region of the plate corresponding to the ceramide standard is scraped and the tritium of the co-migrating sample ceramide is measured. Total sample ceramide is then expressed as percent tritium label in ceramide versus tritium in total lipid. […]"}}}
{"smiles": "CC1=C(/C=C/C(C)=C/C=C/C(C)=C/C(=O)Nc2ccc(O)cc2)C(C)(C)CCC1", "note": "[HPR, all-trans-N-(4-hydroxyphenyl)retinamide]", "values": [{"measurement": "morphological nuclear changes indicative of apoptosis", "setting": "CHLA-90 cells; HPR 10 μM alone, relative to controls (P=0.006)", "value": "induced significant apoptosis"}, {"measurement": "morphological evidence of necrosis", "setting": "CHLA-90 cells; HPR 10 μM, relative to controls (P=0.002)", "value": "significant morphological evidence of necrosis"}, {"measurement": "ceramide generation", "setting": "[1]", "value": "generate ceramide"}]}
